In patent publication US20230085307A1, “PYRIDAZINONE COMPOUND AND HERBICIDE” (NISSAN CHEMICAL CORPORATION, priority 2019, published 2023):

Key:
late watergrass = assay: Test Example 1: herbicidal activity, application before weed generation under submerged conditions (Table 16, symbol A); format: in vivo, late watergrass (Echinochloa oryzicola)
Outline: (§1)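 Alluvial soil was flooded to 4 cm depth, weed seeds were sown mixed and 2.5-leaf rice seedlings were transplanted. On sowing day, the compound's emulsion, diluted in water to a set dose, was applied to the water surface. Plants grew at 25–30 °C and were scored 0–5 after three weeks.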

Japanese bulrush = assay: Test Example 1: herbicidal activity, application before weed generation under submerged conditions (Table 16, symbol B); format: in vivo, Japanese bulrush (Schoenoplectus juncoides)
Outline: as §1

oval-leafed pondweed = assay: Test Example 1: herbicidal activity, application before weed generation under submerged conditions (Table 16, symbol C); format: in vivo, oval-leafed pondweed (Monochoria vaginalis)
Outline: as §1

barnyard grass [1] = assay: Test Example 3: herbicidal effect by foliage application, Wagner pot (Table 18, symbol H); format: in vivo, barnyard grass (Echinochloa crus-galli)
Outline: (§2)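 Plants were sown in alluvial soil held under 0.1–0.5 cm standing water and grown 14 days in a greenhouse at 25–30 °C. An emulsifiable formulation, water-diluted to the set dose, was then sprayed onto the foliage, and effects were scored three weeks later using previously defined criteria.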

Chinese sprangletop = assay: Test Example 3: herbicidal effect by foliage application, Wagner pot (Table 18, symbol D); format: in vivo, chinese sprangletop (Leptochloa chinensis)
Outline: as §2

rice flat sedge = assay: Test Example 3: herbicidal effect by foliage application, Wagner pot (Table 18, symbol E); format: in vivo, rice flat sedge (Cyperus iria)
Outline: as §2

southern crabgrass [2] = assay: Test Example 4: herbicidal effect by soil treatment (Table 19, symbol F); format: in vivo, southern crabgrass (Digitaria ciliaris)
Outline: (§3)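 Herbicidal effect was rated 3 weeks after treatment, using the scoring criteria of an earlier test. The compound, formulated as an emulsion and diluted in water to a set herbicide amount, had been sprayed uniformly on soil over freshly sown seeds. Growth took place in a greenhouse at 25° C. to 30° C.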

green foxtail [3] = assay: Test Example 4: herbicidal effect by soil treatment (Table 19, symbol G); format: in vivo, green foxtail (Setaria viridis)
Outline: as §3

barnyard grass [4] = assay: Test Example 4: herbicidal effect by soil treatment (Table 19, symbol H); format: in vivo, barnyard grass (Echinochloa crus-galli)
Outline: as §3

wild oat [5] = assay: Test Example 4: herbicidal effect by soil treatment (Table 19, symbol I); format: in vivo, wild oat (Avena fatua)
Outline: as §3

blackgrass [6] = assay: Test Example 4: herbicidal effect by soil treatment (Table 19, symbol J); format: in vivo, blackgrass (Alopecurus myosuroides)
Outline: as §3

Italian ryegrass [7] = assay: Test Example 4: herbicidal effect by soil treatment (Table 19, symbol K); format: in vivo, Italian ryegrass (Lolium multiflorum)
Outline: as §3

windgrass [8] = assay: Test Example 4: herbicidal effect by soil treatment (Table 19, symbol L); format: in vivo, windgrass (Apera spica-venti)
Outline: as §3

velvetleaf [9] = assay: Test Example 4: herbicidal effect by soil treatment (Table 19, symbol M); format: in vivo, velvetleaf (Abutilon theophrasti)
Outline: as §3

redroot pigweed [10] = assay: Test Example 4: herbicidal effect by soil treatment (Table 19, symbol N); format: in vivo, redroot pigweed (Amaranthus retroflexus)
Outline: as §3

lambsquarters [11] = assay: Test Example 4: herbicidal effect by soil treatment (Table 19, symbol O); format: in vivo, lambsquarters (Chenopodium album)
Outline: as §3

false cleavers = assay: Test Example 4: herbicidal effect by soil treatment (Table 19, symbol Q); format: in vivo, false cleavers (Galium spurium)
Outline: as §3

southern crabgrass [12] = assay: Test Example 5: herbicidal effect by foliage application, plastic box (Table 20, symbol F); format: in vivo, southern crabgrass (Digitaria ciliaris); settings: foliage application, 320 g/ha
Outline: (§4)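 Foliar spray test: emulsion formulation diluted in water to a set application rate, sprayed onto 14-day-old plants raised in diluvial soil at 25° C to 30° C under glass. Both herbicidal effect and crop effect rated visually three weeks later.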

green foxtail [13] = assay: Test Example 5: herbicidal effect by foliage application, plastic box (Table 20, symbol G); format: in vivo, green foxtail (Setaria viridis); settings: foliage application, 320 g/ha
Outline: as §4

barnyard grass [14] = assay: Test Example 5: herbicidal effect by foliage application, plastic box (Table 20, symbol H); format: in vivo, barnyard grass (Echinochloa crus-galli); settings: foliage application, 320 g/ha
Outline: as §4

wild oat [15] = assay: Test Example 5: herbicidal effect by foliage application, plastic box (Table 20, symbol I); format: in vivo, wild oat (Avena fatua); settings: foliage application, 320 g/ha
Outline: as §4

blackgrass [16] = assay: Test Example 5: herbicidal effect by foliage application, plastic box (Table 20, symbol J); format: in vivo, blackgrass (Alopecurus myosuroides); settings: foliage application, 320 g/ha
Outline: as §4

Italian ryegrass [17] = assay: Test Example 5: herbicidal effect by foliage application, plastic box (Table 20, symbol K); format: in vivo, Italian ryegrass (Lolium multiflorum); settings: foliage application, 320 g/ha
Outline: as §4

windgrass [18] = assay: Test Example 5: herbicidal effect by foliage application, plastic box (Table 20, symbol L); format: in vivo, windgrass (Apera spica-venti); settings: foliage application, 320 g/ha
Outline: as §4

velvetleaf [19] = assay: Test Example 5: herbicidal effect by foliage application, plastic box (Table 20, symbol M); format: in vivo, velvetleaf (Abutilon theophrasti); settings: foliage application, 320 g/ha
Outline: as §4

redroot pigweed [20] = assay: Test Example 5: herbicidal effect by foliage application, plastic box (Table 20, symbol N); format: in vivo, redroot pigweed (Amaranthus retroflexus); settings: foliage application, 320 g/ha, evaluated three weeks after application
Outline: as §4

lambsquarters [21] = assay: Test Example 5: herbicidal effect by foliage application, plastic box (Table 20, symbol O); format: in vivo, lambsquarters (Chenopodium album); settings: foliage application, 320 g/ha
Outline: as §4

chickweed = assay: Test Example 5: herbicidal effect by foliage application, plastic box (Table 20, symbol P); format: in vivo, common chickweed (Stellaria media); settings: foliage application, 320 g/ha, evaluated three weeks after application
Outline: as §4

persian speedwell = assay: Test Example 5: herbicidal effect by foliage application, plastic box (Table 20, symbol R); format: in vivo, Persian speedwell (Veronica persica); settings: foliage application, 320 g/ha
Outline: as §4

[22] = evaluated three weeks after application
[23] = amount of applied herbicide 320 g/ha

CCCC(=O)Oc1c(C)nn(C)c(=O)c1-c1c(-c2ccc(Cl)c(Cl)c2)sc2ccc(F)cc12 [2-082]
Herbicidal effect on A: late watergrass (grade 0-5) (late watergrass; 320 g/ha applied herbicide): 2 (Herbicidal rate of 20% or more and less than 40%)
Herbicidal effect on B: Japanese bulrush (grade 0-5) (Japanese bulrush; 320 g/ha applied herbicide): 3 (Herbicidal rate of 40% or more and less than 70%)
Herbicidal effect on C: oval-leafed pondweed (grade 0-5) (oval-leafed pondweed; 320 g/ha applied herbicide): 0 (Herbicidal rate of 5% or less (almost no effect))
herbicidal effect on H (barnyard grass), rating 0-5 (barnyard grass [1]; 320 g/ha): 4 (Herbicidal rate of 70% or more and less than 90%)
herbicidal effect on D (Chinese sprangletop), rating 0-5 (Chinese sprangletop; 320 g/ha): 2 (Herbicidal rate of 20% or more and less than 40%)
herbicidal effect on E (rice flat sedge), rating 0-5 (rice flat sedge; 320 g/ha): 4 (Herbicidal rate of 70% or more and less than 90%)
herbicidal effect rating, F: southern crabgrass (southern crabgrass [2]; 320 g/ha): 1 (Herbicidal rate of 5% or more and less than 20%)
herbicidal effect rating, G: green foxtail (green foxtail [3]; 320 g/ha): 0 (Herbicidal rate of 5% or less (almost no effect))
herbicidal effect rating, H: barnyard grass (barnyard grass [4]; 320 g/ha): 0 (Herbicidal rate of 5% or less (almost no effect))
herbicidal effect rating, I: wild oat (wild oat [5]; 320 g/ha): 0 (Herbicidal rate of 5% or less (almost no effect))
herbicidal effect rating, J: blackgrass (blackgrass [6]; 320 g/ha): 0 (Herbicidal rate of 5% or less (almost no effect))
herbicidal effect rating, K: Italian ryegrass (Italian ryegrass [7]; 320 g/ha): 0 (Herbicidal rate of 5% or less (almost no effect))
herbicidal effect rating, L: windgrass (windgrass [8]; 320 g/ha): 0 (Herbicidal rate of 5% or less (almost no effect))
herbicidal effect rating, M: velvetleaf (velvetleaf [9]; 320 g/ha): 0 (Herbicidal rate of 5% or less (almost no effect))
herbicidal effect rating, N: redroot pigweed (redroot pigweed [10]; 320 g/ha): 3 (Herbicidal rate of 40% or more and less than 70%)
herbicidal effect rating, O: lambsquarters (lambsquarters [11]; 320 g/ha): 2 (Herbicidal rate of 20% or more and less than 40%)
herbicidal effect rating, Q: false cleavers (false cleavers; 320 g/ha): 0 (Herbicidal rate of 5% or less (almost no effect))
herbicidal effect on F: southern crabgrass (southern crabgrass [12]; [22]): 0 (Herbicidal rate of 5% or less (almost no effect))
herbicidal effect on G: green foxtail (green foxtail [13]; [22]): 0 (Herbicidal rate of 5% or less (almost no effect))
herbicidal effect on H: barnyard grass (barnyard grass [14]; [22]): 0 (Herbicidal rate of 5% or less (almost no effect))
herbicidal effect on I: wild oat (wild oat [15]; [22]): 0 (Herbicidal rate of 5% or less (almost no effect))
herbicidal effect on J: blackgrass (blackgrass [16]; [22]): 0 (Herbicidal rate of 5% or less (almost no effect))
herbicidal effect on K: Italian ryegrass (Italian ryegrass [17]; [22]): 0 (Herbicidal rate of 5% or less (almost no effect))
herbicidal effect on L: windgrass (windgrass [18]; [22]): 0 (Herbicidal rate of 5% or less (almost no effect))
herbicidal effect on M: velvetleaf (velvetleaf [19]; [22]): 3 (Herbicidal rate of 40% or more and less than 70%)
herbicidal effect on N: redroot pigweed (redroot pigweed [20]): 3 (Herbicidal rate of 40% or more and less than 70%)
herbicidal effect on O: lambsquarters (lambsquarters [21]; [22]): 3 (Herbicidal rate of 40% or more and less than 70%)
herbicidal effect on P: chickweed (chickweed): 5 (Herbicidal rate of 90% or more (almost completely withered))
herbicidal effect on R: persian speedwell (persian speedwell; [22]): 3 (Herbicidal rate of 40% or more and less than 70%)

COCc1ccc(-c2oc3ccc(F)cc3c2-c2c(O)c(C)nn(C)c2=O)cc1 [9-043]
Herbicidal effect, A: late watergrass (late watergrass; [23]): 3 (Herbicidal rate of 40% or more and less than 70%)
Herbicidal effect, B: Japanese bulrush (Japanese bulrush; [23]): 0 (Herbicidal rate of 5% or less (almost no effect))
Herbicidal effect, C: oval-leafed pondweed (oval-leafed pondweed; [23]): 2 (Herbicidal rate of 20% or more and less than 40%)
Herbicidal effect on H (barnyard grass), foliage application (barnyard grass [1]; [23]): 4 (Herbicidal rate of 70% or more and less than 90%)
Herbicidal effect on D (Chinese sprangletop), foliage application (Chinese sprangletop; [23]): 3 (Herbicidal rate of 40% or more and less than 70%)
Herbicidal effect on E (rice flat sedge), foliage application (rice flat sedge; [23]): 5 (Herbicidal rate of 90% or more (almost completely withered))
F: southern crabgrass, herbicidal effect grade (southern crabgrass [2]; [23]): 4 (Herbicidal rate of 70% or more and less than 90%)
G: green foxtail, herbicidal effect grade (green foxtail [3]; [23]): 5 (Herbicidal rate of 90% or more (almost completely withered))
H: barnyard grass, herbicidal effect grade (barnyard grass [4]; [23]): 4 (Herbicidal rate of 70% or more and less than 90%)
I: wild oat, herbicidal effect grade (wild oat [5]; [23]): 0 (Herbicidal rate of 5% or less (almost no effect))
J: blackgrass, herbicidal effect grade (blackgrass [6]; [23]): 4 (Herbicidal rate of 70% or more and less than 90%)
K: Italian ryegrass, herbicidal effect grade (Italian ryegrass [7]; [23]): 5 (Herbicidal rate of 90% or more (almost completely withered))
L: windgrass, herbicidal effect grade (windgrass [8]; [23]): 0 (Herbicidal rate of 5% or less (almost no effect))
M: velvetleaf, herbicidal effect grade (velvetleaf [9]; [23]): 4 (Herbicidal rate of 70% or more and less than 90%)
N: redroot pigweed, herbicidal effect grade (redroot pigweed [10]; [23]): 5 (Herbicidal rate of 90% or more (almost completely withered))
O: lambsquarters, herbicidal effect grade (lambsquarters [11]; [23]): 3 (Herbicidal rate of 40% or more and less than 70%)
Q: false cleavers, herbicidal effect grade (false cleavers; [23]): 0 (Herbicidal rate of 5% or less (almost no effect))
herbicidal effect on southern crabgrass (F) (southern crabgrass [12]; three weeks after application): 3 (Herbicidal rate of 40% or more and less than 70%)
herbicidal effect on green foxtail (G) (green foxtail [13]; three weeks after application): 4 (Herbicidal rate of 70% or more and less than 90%)
herbicidal effect on barnyard grass (H) (barnyard grass [14]; three weeks after application): 3 (Herbicidal rate of 40% or more and less than 70%)
herbicidal effect on wild oat (I) (wild oat [15]; three weeks after application): 0 (Herbicidal rate of 5% or less (almost no effect))
herbicidal effect on blackgrass (J) (blackgrass [16]; three weeks after application): 4 (Herbicidal rate of 70% or more and less than 90%)
herbicidal effect on Italian ryegrass (K) (Italian ryegrass [17]; three weeks after application): 5 (Herbicidal rate of 90% or more (almost completely withered))
herbicidal effect on windgrass (L) (windgrass [18]; three weeks after application): 0 (Herbicidal rate of 5% or less (almost no effect))
herbicidal effect on velvetleaf (M) (velvetleaf [19]; three weeks after application): 4 (Herbicidal rate of 70% or more and less than 90%)
herbicidal effect on lambsquarters (O) (lambsquarters [21]; three weeks after application): 4 (Herbicidal rate of 70% or more and less than 90%)
herbicidal effect on persian speedwell (R) (persian speedwell; three weeks after application): 5 (Herbicidal rate of 90% or more (almost completely withered))
